Measured values as given in patent US20050266435A1, “VR1 receptors and uses thereof” (priority 2004, published 2005).

How the values were obtained:
human VR1 = human VR1 (Homo sapiens, UniProt Q8NER1); conditions: cited from earlier work
[1] = molecular target: T1, mutant channel Y511A (VR1) (Homo sapiens, UniProt Q8NER1, Y511A); experiment: Calcium imaging with fura-2 in transfected HEK293 cells, low pH stimulus; format: cell-based
T1 construct: expressed in transfected cells; host or cells: HEK293
Protocol: (§1) The resulting sequence-verified mutant VR1 DNA was inserted into the pcDNA3.1 vector (Invitrogen). Human HEK293 cells were then transfected with the DNA, incubated at 37° C. for 24-48 hrs, and then analyzed for receptor response using calcium imaging techniques.
(§2) Calcium imaging was performed using a Zeiss Axiovert 200M fluorescence microscope equipped with a Photonics Polychrome IV monochrometer fluorescence excitation system as well as a multivalve perfusion system for delivering drugs. Cells were plated on 12 mm glass coverslips and loaded with fura2-AM for 30 min at 37° C. Imaging was performed by alternatively measuring the fluorescence excited at 340 nm and 380 nm at 5 sec time intervals. The ratio between these measured fluorescence values (F340/F380) was then calculated and graphed as a function of time. The 340/380 fluorescence ratio is proportional in a nonlinear way to the intracellular free calcium concentration. Since VR1 is a calcium channel, its opening results in an influx of calcium into the cytoplasm and an increase in the 340/380 fluorescence ratio.
(§3) A normal saline (pH 7.6) wash solution was used as the control solution. […] Compound 18 is named 4-(3-Chloropyridin-2-yl)-N-(4-trifluoromethyl-phenyl)benzamide, and is described and disclosed in commonly owned co-pending International Application No. PCT/US04/033099 filed Oct. […]

[2] = molecular target: T2, mutant VR1 receptor Y511A (Homo sapiens, UniProt Q8NER1, Y511A); experiment: Two-electrode voltage clamp in Xenopus oocytes, capsaicin activation; format: cell-based; conditions: capsaicin concentrations as high as 100 μM
T2 construct: expressed in transfected cells; host or cells: Xenopus oocytes (RNA injected, pTNT vector)
Protocol: (§4) The ability of capsaicin to activate the mutant VR1 receptors was evaluated in an oocyte system. cDNAs containing the coding sequences of the unmutated human VR1 receptor as well as the mutant receptors Y511A, […], and S512Y were placed into the multiple-cloning site in the pTNT vector (Promega), which contains a T7 promoter sequence, the beta-globin 5′UTR, and a polyadenylation sequence to enhance translation and RNA stability. RNA was synthesized in-vitro using T7 RNA polymerase. The RNA for each channel was injected into Xenopus oocytes (obtained from Nasco, Inc) and incubated at 16° C. for 3-5 days. Standard two-electrode voltage clamp recordings were used to analyze the function of each expressed channel. Solutions were passed over the oocytes using a multiple-valve perfusion system.

[3] = molecular target: T3, mutant VR1 receptor Y511C (Homo sapiens, UniProt Q8NER1, Y511C); experiment: as above; format: cell-based; conditions: capsaicin concentrations as high as 100 μM
Protocol: as §4

[4] = molecular target: T4, wild-type human VR1 receptor (Homo sapiens, UniProt Q8NER1); experiment: as above; format: cell-based; conditions: 10 μM capsaicin
T4 construct: expressed in transfected cells; host or cells: Xenopus oocytes (RNA injected, pTNT vector)
Protocol: as §4

[5] = molecular target: T3, mutant VR1 receptor Y511C; experiment: Calcium imaging with fura-2 in transfected HEK293 cells, low pH (pH 5.1) stimulus; format: cell-based; design: expressed in transfected cells; host or cells: HEK293
Protocol: as §1, §2, §3

[6] = molecular target: T5, mutant channel S512Y (VR1) (Homo sapiens, UniProt Q8NER1, S512Y); experiment: Calcium imaging with fura-2 in transfected HEK293 cells, low pH stimulus; format: cell-based; design: expressed in transfected cells; host or cells: HEK293
Protocol: as §1, §2, §3

[7] = molecular target: T5, mutant channel S512Y (VR1); experiment: Two-electrode voltage clamp in Xenopus oocytes, capsaicin activation; format: cell-based; design: expressed in transfected cells; host or cells: Xenopus oocytes (RNA injected, pTNT vector)
Protocol: as §4

[8] = molecular target: T3, mutant VR1 receptor Y511C; experiment: Specific binding of 3H-Resiniferatoxin to membranes of 293 HEK cells; design: expressed in transfected cells; host or cells: HEK293; conditions: 3H-RTX 0.5 nM, absence or presence of unlabeled RTX 200 nM
Protocol: Specific binding of ^3H-Resiniferatoxin (RTX) to membranes of 293 HEK cells expressing human VR 1 and mutant VR 1 receptor Y511C was assessed and the results are presented in FIG. 6. Binding of ^3H-RTX (0.5 nM) to the membranes was conducted in the absence (labeled total binding) or presence (labeled non specific binding) of unlabeled RTX (200 nM) as indicated.

rat VR1 = rat VR1 (Rattus norvegicus, UniProt O35433); conditions: cited from earlier work
Sequence of rat VR1 (O35433 whole entry): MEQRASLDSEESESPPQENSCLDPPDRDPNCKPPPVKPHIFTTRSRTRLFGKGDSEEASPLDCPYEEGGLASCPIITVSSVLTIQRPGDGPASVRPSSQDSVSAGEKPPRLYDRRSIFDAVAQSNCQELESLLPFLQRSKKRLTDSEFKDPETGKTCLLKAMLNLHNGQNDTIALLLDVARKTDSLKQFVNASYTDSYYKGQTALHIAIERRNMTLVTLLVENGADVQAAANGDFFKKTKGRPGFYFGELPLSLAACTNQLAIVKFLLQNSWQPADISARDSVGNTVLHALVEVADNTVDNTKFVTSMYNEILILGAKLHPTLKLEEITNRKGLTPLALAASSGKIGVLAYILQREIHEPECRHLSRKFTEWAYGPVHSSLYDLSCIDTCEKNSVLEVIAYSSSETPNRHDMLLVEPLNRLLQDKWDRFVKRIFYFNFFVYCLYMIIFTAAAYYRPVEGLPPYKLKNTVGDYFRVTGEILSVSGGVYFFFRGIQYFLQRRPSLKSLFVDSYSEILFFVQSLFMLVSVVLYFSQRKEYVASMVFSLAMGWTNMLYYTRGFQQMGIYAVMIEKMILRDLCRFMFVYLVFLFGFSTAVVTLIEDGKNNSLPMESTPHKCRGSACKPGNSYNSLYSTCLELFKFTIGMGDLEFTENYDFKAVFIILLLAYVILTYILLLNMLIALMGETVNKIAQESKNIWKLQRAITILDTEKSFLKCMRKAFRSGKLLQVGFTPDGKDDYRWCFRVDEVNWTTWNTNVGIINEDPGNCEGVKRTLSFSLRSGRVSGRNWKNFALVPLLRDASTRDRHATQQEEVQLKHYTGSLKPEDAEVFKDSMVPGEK

For `COc1cc(CC(=O)OCC2=C[C@H]3[C@@H]4C(C)(C)[C@]4(OC(C)=O)[C@H](OC(=O)Cc4ccccc4)[C@@H](C)[C@]3(O)[C@@H]3C=C(C)C(=O)[C@@]3(O)C2)ccc1O` [PPAHV, phorbol 12-phenylacetate 13 acetate 20-homovanillate], the “agonist activity on human VR1” value (human VR1; up to a concentration of 10•M) is given as “essentially inactive”.
In the case of `COc1cc(CNC(=O)CCCC/C=C/C(C)C)ccc1O` [capsaicin], the “sensitivity of channel to capsaicin” value [1] is reported as “capsaicin-insensitive”, the “capsaicin response (current)” value [2] is reported as “no detectable capsaicin response” and the “capsaicin response (current)” value [3] is reported as “no detectable capsaicin response”. For the same compound, the “capsaicin response (current)” value [4] was “large response”, the “response to capsaicin (calcium influx)” value ([5]; 250 nM capsaicin, Y511C in transfected 293 cells) was “no detectable response” and the “sensitivity of channel to capsaicin” value [6] was “capsaicin-insensitive”. The “capsaicin response (current)” value ([7]; 10 μM capsaicin (data not shown)) was “no detectable response” and the “capsaicin response (current)” value ([7]; 100 μM capsaicin) was “small capsaicin response”.
With `C=C(C)[C@]12C[C@@H](C)[C@@]34O[C@](Cc5ccccc5)(O[C@@H]1[C@@H]3C=C(COC(=O)Cc1ccc(O)c(OC)c1)C[C@]1(O)C(=O)C(C)=C[C@@H]41)O2` [RTX, resiniferatoxin] the “binding to the mutant VR1 receptor” value [8] was “no significant binding”.
For `O=C(Nc1ccc(C(F)(F)F)cc1)c1ccc(-c2ncccc2Cl)cc1` [Compound 18, 4-(3-Chloropyridin-2-yl)-N-(4-trifluoromethyl-phenyl)benzamide], the IC50 ([5]; mutant VR1 receptor channel, read-out: IC50 for channel blocking activity) was 0.135 µM.
For `Oc1cc2c(cc1O)CN(C(=S)NCCc1ccc(Cl)cc1)CCC2` [capsazine], the “block of low pH-evoked responses” value (rat VR1) is given as “not”, the “inhibition of heat response” value (rat VR1) is given as “weak inhibitor” and the “potency of inhibition of capsaicin activation, human VR1 versus rat” value (human VR1; greater potency on human VR1 receptors than rat) is given as “approximately 6 fold”. For the same compound, the “block of VR1-mediated heat response” value (human VR1; human VR1) was “highly effective” and the “block of low pH-evoked responses” value (human VR1; human VR1) was “blocked”.
